Measured values published in patent EP1509285B1, “SYNERGISTIC COMPOSITION OF TRANS-TETRACOS-15-ENOIC ACID AND APOCYNIN AND USE THEREOF” (COUNCIL OF SCIENTIFIC AND INDUSTRIAL RESEARCH, priority 2002, dated 2003).

Columns and labels:
[1] = test system: bile flow and bile solids; assay: Choleretic activity: bile flow and bile solids after bile duct cannulation in normal anaesthetised rats; format: in vivo; details: 50 mg kg-1 i.d., bile collected 0-5 hours, mean ±SE
Excerpt: The liver, by producing bile, plays an important role in digestion. The presence of bile in the intestine is necessary to accomplish the digestion and absorption of fats as well as absorption of the fat-soluble vitamins- A, D, E & K. Bile is also an important vehicle of excretion. It removes many drugs, toxins, bile pigments and various inorganic substances either derived from the diet or synthesized by the body as cholesterol or as cholic acid.
Effect on the liver bile flow of test drug and that of vehicle is carried out after cannulating the bile duct in normal anaesthesied rats. Bile collected is from each animal from 0-5 hours (Klaassen, 1969, Donal et al.1953). (Table 5)

[2] = test system: CCl4 induced hepatic injury; assay: Hepatoprotective activity (in vivo) against CCl4 induced hepatic injury; details: rats; for Hepatic parameters Glutathione / Hepatic parameters Lipid peroxidation / Serum parameters ALP / Serum parameters Bilirubin / Serum parameters Triglycerides / Serum parameters GOT / Serum parameters GPT: 50 mg kg-1 p.o. at 48h, 24h, 2h before and 6h after CCl4 0.5 ml kg-1 p.o.; for Serum parameters GOT / Serum parameters GPT: unit is µmole pyruvate/min/L; for hepatoprotective activity percent, ALP / hepatoprotective activity percent, Bilirubin / hepatoprotective activity percent, GOT / hepatoprotective activity percent, GPT / hepatoprotective activity percent, Glutathione / hepatoprotective activity percent, Lipid peroxidation / hepatoprotective activity percent, Triglycerides: CCl4, 50 mg kg-1 p.o., H = [1-(TC-V/VC-V)] × 100
Protocol: (§1) i. Animals: The pharmacological studies are conducted on Wistar albino rats (150-180g) and Swiss albino mice (25-30g) of either sex, colony - bred in the Institute's animal house. After procurement, all the animals are divided into different groups and are left for one week for acclimatization to experimentation room and are maintained on standard conditions (23±2°C, 60-70 % relative humidity and 12 h photo period). The animals are fed with standard rodents pellet diet and water ad libitum. There are six animals in each group except for general behaviour and acute toxicity studies where ten animals are used in each group.
Carbon tetrachloride (CCl4): CCl4 is one of the most powerful hepatotoxins (in term of severity of injury). It causes toxic necrosis, which leads to biochemical changes having clinical features similar to those of acute viral hepatitis (Vogel, 1977, Bramanti et. al., 1978, Kumar et. al., 1992). Liver injury is produced by administration of CCl4 mixed with liquid paraffin. Animals are given single dose of CCl4 (50 µl.kg^-1, p.o.) in acute single treatment and (0.5 ml.kg^-1, p.o.) in case of multitreatment with drug. It is administered orally (p.o) by gastric intubation. The control animals received the equal volume of liquid paraffin. (Table 3, 4).
(§2) Freshly prepared suspension (1%, w/v) in 0.2% gum acacia in normal saline is used for all the experiments except for toxicity studies where (10 %, w/v) suspension is used. Silymarin suspension (1%, w/v) in 0.2 % gum acacia is used as a reference standard (positive control).
Treatment of test material before and after hepatotoxin: The doses of TCA and APO individually and in mixture, silymarin (50 mg/kg, p.o. each) and vehicle (normal saline) are fed to different groups of rats at 48 hours, 24 hours and 2 hours before and 6 hours after hepatotoxin (CCl4 , 0.5 ml.kg^-1, p.o.) intoxication. Blood is collected from orbital sinus in all the animals 18 hours after last treatment and serum separated for different estimations. All the animals are then killed by decapitation, their livers are quickly excised, cleaned of adhering tissue, weighed and homogenised in phosphate buffer saline for the analysis of hepatic parameters (Agarwal and Mehendale, 1983, Klingensmith and Mehendale, 1982, Zimmerman, 1973, Edmondson and Peter, 1985, Mitchell, et al, 1973). (Table 3-4).
(§3) • GPT and GOT: Pyruvate formed by transamination reaction is determined spectrophotometrically after reaction with 2,4-dinitrophenylhydrazine (Reitman and Frankel, 1957). • ALP : p-nitrophenol formed in alkaline medium is measured spectrophotometrically using p-nitrophenyl phosphate as substrate (Walter and Schutt, 1974). • Bilirubin : Total bilirubin is measured by diazotization reaction with NaNO2 (Malloy and Evelyn, 1937) • Triglycerides : Triglycerides from serum are extracted with isopropanol and sopanified with KOH. The liberated glycerol is converted to formaldehyde by periodate and determined after reaction with acetyl acetone. Triolein is used as standard (Neri and Firings, 1973). • Glutathione: It is determined after deproteination by reaction with DTNB (Ellman 1959 as modified by David 1987). • Lipid peroxidation: Thiobarbituric acid reacting substances are determined spectrophotometrically at 535 nm. Buege. and Aust. (1978).
(§4) Hepatoprotective activity (H) is calculated by the following equation: H = [1-(TC-V/VC-V)] × 100 [formula]
(§5) Where TC, VC, and V are drug + toxin, vehicle + toxin and vehicle treated groups of animals respectively.

[3] = test system: 'Acetaminophen' (APAP) induced hepatotoxicity; assay: Hepatoprotective activity (in vivo) against acetaminophen (paracetamol) induced hepatotoxicity after diethyl-ether inhalation; details: mice; for Serum parameters GOT / Serum parameters GPT: unit is µmole pyruvate/min/L; for hepatoprotective activity percent, ALP / hepatoprotective activity percent, Bilirubin / hepatoprotective activity percent, GOT / hepatoprotective activity percent, GPT / hepatoprotective activity percent, Glutathione / hepatoprotective activity percent, Lipid peroxidation / hepatoprotective activity percent, Triglycerides: APAP, 50 mg kg-1 p.o., H = [1-(TC-V/VC-V)] × 100
Protocol: as §1
Paracetamol (APAP, acetaminophen): It is a therapeutic agent widely used as analgesic/antipyretic drug. When taken in large doses it causes hepatic necrosis which leads to biochemical changes having clinical features similar to those of acute viral hepatitis. The similar effect is observed in animals. The toxic effect can be potentiated if it is given several hours after the anesthetic ether inhalation (Wells et. al., 1986).
Liver injury is induced by injecting paracetamol (200 mg.kg^-1) interaperitoneally in normal saline (pH 9.4) six hour after inhalation of anesthetic ether (4ml/4min/6animals) in a closed chamber. The control animals received the equal volume of vehicle. (Table 2)
as §2
The doses of TCA and APO individually and in mixture, silymarin (50 mg/kg, p.o. each) and vehicle (normal saline) are fed to different groups of mice at 72 hours, 48 hours and 24 hours, 1 hour before diethyl ether inhalation and 1hour after hepatotoxin (paracetamol, 200 mg.kg^-1, i.p.) given 6 hours after exposure to diethyl- ether. Blood is collected from orbital sinus in all the animals 18 hours after last treatment and serum separated for different estimations. A portion of the liver is processed for histopathological studies. (Table 2)
as §3, §4, §5

[4] = 50 mg kg-1 p.o. at 72 h, 48 h, 24 h, 1h before diethyl-ether and 1 h after APAP 200 mg kg-1 i.p., mean ± S.E.
[5] = Table 4 (own control groups), mean ± S. E.

| Compound | Bile parameters % Increase (as compared to normal) Bile flow [1] [ml%] | Bile parameters % Increase (as compared to normal) Bile solids [1] [mg%] | Hepatic parameters Glutathione [3, 4] [µ mole GSH/g liver] | Serum parameters ALP [3, 4] | Serum parameters Bilirubin [3, 4] [mg %] | Serum parameters Triglycerides [3, 4] [mg %] | Serum parameters GOT [3, 4] [Units] | Serum parameters GPT [3, 4] [Units] | hepatoprotective activity percent, ALP [3] | hepatoprotective activity percent, Bilirubin [3] | hepatoprotective activity percent, GOT [3] | hepatoprotective activity percent, GPT [3] | hepatoprotective activity percent, Glutathione [3] | hepatoprotective activity percent, Lipid peroxidation [3] | hepatoprotective activity percent, Triglycerides [3] | also measured |
| --- | --- | --- | --- | --- | --- | --- | --- | --- | --- | --- | --- | --- | --- | --- | --- | --- |
| CCCCCCCC/C=C/CCCCCCCCCCCCCC(=O)O [TCA, trans-tetracos-15-enoic acid] | 08.23±1.71 | 13.40±1.53 | 4.59±0.45 | 34.95±1.89 µ mole of p-nitroplenol formed/min/ L | 0.355±0.01 | 23.53±1.77 | 561.83±51.52 | 1008.04±63.66 | (52.96) percent | (56.48) percent | (54.92) percent | (57.99) percent | (42.35) percent | (55.48) percent | (66.05) percent | Hepatic parameters Glutathione ([2]; Table 3, mean ± S.E.): 5.35±0.51 µ mole GSH/g liver; Hepatic parameters Lipid peroxidation ([2]; Table 3, mean ± S.E.): 46.88±2.58 n moles MDA/g liver; Serum parameters ALP ([2]; Table 3, mean ± S.E.): 28.72±3.90 µ mole of p-nitrophenol formed/min/ L; Serum parameters Bilirubin ([2]; Table 3, mean ± S.E.): 0.35±0.02 mg %; Serum parameters Triglycerides ([2]; Table 3, mean ± S.E.): 23.53±1.77 mg %; Serum parameters GOT ([2]; Table 3, mean ± S.E.): 409.73±46.57 Units; Serum parameters GPT ([2]; Table 3, mean ± S.E.): 324.84±42.09 Units; hepatoprotective activity percent, ALP ([2]; Table 3): (81.78) percent; hepatoprotective activity percent, Bilirubin ([2]; Table 3): (55.55) percent; hepatoprotective activity percent, GOT ([2]; Table 3): (62.16) percent; hepatoprotective activity percent, GPT ([2]; Table 3): (74.63) percent; hepatoprotective activity percent, Glutathione ([2]; Table 3): (52.92) percent; hepatoprotective activity percent, Lipid peroxidation ([2]; Table 3): (64.33) percent; hepatoprotective activity percent, Triglycerides ([2]; Table 3): (66.05) percent |
| COc1cc(C(C)=O)ccc1O [APO, Apocynin] | 27.39±2.05 | 24.05±2.76 | 4.60±0.42 | 29.71±1.89 µ mole of p-nitroplenol formed/min/ L | 0.43±0.01 | 30.50±1.36 | 755.04±112.04 | 1334.72±98.34 | (67.91) percent | (42.59) percent | (36.07) percent | (42.27) percent | (42.60) percent | (38.34) percent | (36.68) percent | Hepatic parameters Glutathione [2, 5]: 4.44±0.26 µ mole GSH/g liver; Hepatic parameters Lipid peroxidation [2, 5]: 48.12±2.28 n moles MDA/g liver; Serum parameters ALP [2, 5]: 26.66±2.06 µ mole ofp-nitrophenol formed/min/ L; Serum parameters Bilirubin [2, 5]: 0.37±0.01 mg %; Serum parameters Triglycerides [2, 5]: 28.00±2.39 mg %; Serum parameters GOT [2, 5]: 489.39±66.82 Units; Serum parameters GPT [2, 5]: 838.58±69.65 Units; hepatoprotective activity percent, ALP ([2]; Table 4): (86.05) percent; hepatoprotective activity percent, Bilirubin ([2]; Table 4): (48.94) percent; hepatoprotective activity percent, GOT ([2]; Table 4): (39.31) percent; hepatoprotective activity percent, GPT ([2]; Table 4): (47.86) percent; hepatoprotective activity percent, Glutathione ([2]; Table 4): (40.73) percent; hepatoprotective activity percent, Lipid peroxidation ([2]; Table 4): (42.77) percent; hepatoprotective activity percent, Triglycerides ([2]; Table 4): (36.68) percent; Hepatic parameters Lipid peroxidation [3, 4]: 48.32±2.13 n moles MDA/g liver |
